Tests used:
MtIOMT2 = assay: OMT assays with purified recombinant MtIOMT2 (relative activity; HPLC/MS of products); assay type: biochemical, Medicago truncatula; details: for Relative activity, MtIOMT2: 50 μM S-adenosyl methionine, 100 μM acceptor substrate, most converted substrate (daidzein) = 100%
Text: (§1) Cloning of MtIOMT5 (corresponding to TC 100926, TIGR MtGI v.8) was as described previously (Liu et al., 2005). To obtain a full-length cDNA for MtIOMT2, specific primers designed based upon the M. truncatula genomic sequence were used to amplify the MtIOMT2 coding sequence from M. truncatula root cDNA. The amplified product was cloned into the pGEM®-T easy vector (Promega, Madison Wis.) and sequenced to confirm its identity. MtIOMTs were cloned into the pET28a vector (EMD Biosciences, Inc., San Diego, Calif.) using PCR-based amplification with primers designed to introduce EcoRI and XhoI restriction sites; BamHI and XhoI sites were used for cloning MtIOMT6 due to the presence of an internal EcoRI site in this particular cDNA. Because the EST for MtIOMT8 was missing a start codon, the primer designed to clone MtIOMT8 into pET28a contained an additional 2-nucleotide insertion to generate an ATG start site. All MtIOMTs were expressed as translational fusions to an N-terminal His-tag. Expression of MtIOMTs in E. coli BL21(DE3) and purification by Ni^2+-NTA chromatography were as described (Zubieta et al., 2001). Proteins were dialyzed against 20 mM Tris pH 8.0, 100 mM NaCl, 10% (v/v) glycerol, and 14 mM β-mercaptoethanol. Protein concentration was determined by Bradford assay using BSA as a standard (Bradford, 1976).
(§2) Reactions (200 μl) were performed in 0.1 M potassium phosphate, pH 7.4, 10% (w/v) sucrose, 14 mM β-mercaptoethanol with 10 μM protein, 0.5 mM S-adenosyl-L-methionine, and 80 μM phenolic substrates. All substrates were purchased from Indofine (Hillsborough, N.J.) except 6,7-dihydroxy-4′-methoxyisoflavone, dihydrodaidzein, and vestitol, which were purchased from Apin (Oxfordshire, UK). […] OMT assays were incubated at 30° C. for 2 h and extracted with ethyl acetate. Ethyl acetate extracts were dried under N2 and the resultant material was resuspended in 50-100 μl of methanol. Samples were analyzed on an Agilent 1100 HPLC, equipped with a quaternary pump (model #G1311A), a degasser (model #G1322A), an autosampler (model #G1313A), and a diode array detector (model #G1315A). Samples of 20 μl were applied to an ODS2 reverse-phase column (5 μm particle size, 4.6×250 mm) and eluted in 1% (v/v) phosphoric acid with an increasing gradient of acetonitrile (0-5 min, 25%; 5-35 min, 25-50%; 35-39 min, 50-100%) at a flow rate of 1 ml/min. To resolve the 4′-O-methylated and 7-O-methylated products of genistein, samples were applied to a Phenomenex SYNERGI Polar-RP 80 Å column (4 μm particle size, 4.6×250 mm) and eluted in water with an increasing gradient of acetonitrile (0-5 min, 20%; 5-17 min, 20-38%; 17-33 min, 38%; 33-45 min, 38-56%; 45-46 min, 56-100%) at a flow rate of 1 ml/min. Chiral chromatography was performed as described (Liu et al., 2005).
(§3) For determination of specific activities, reactions (100 μl) were performed in 0.1 M potassium phosphate, pH 7.4, 10% (w/v) sucrose, 14 mM β-mercaptoethanol with 0.2-μg protein, 50 μM S-adenosyl-L-methionine (0.025 μCi ^14C-SAM per reaction), and 100 μM substrate. Reactions were incubated at 30° C. for 15-25 min and stopped by addition of 4 μl of 1N HCl. Products were extracted into 500 μl of ethyl acetate and 400 μl was used for liquid scintillation counting.
(§4) An HP 1100 series II LC system (Hewlett-Packard, Palo Alto, Calif.) with a photodiode array detector was coupled to a Bruker Esquire ion-trap mass spectrometer (ITMS) equipped with an electrospray ionization source. A reverse phase, C18, 5 μm, 4.6×250 mm column (J. T. Baker, Phillipsburg, N.J.) was used for separations. The mobile phase consisted of 0.1% (v/v) acetic acid using linear gradients of 5-90% acetonitrile (v/v) in 70 min. The flow rate was 0.8 ml/min, and the temperature of the column was kept at 28° C. Both positive- and negative-ion mass spectra were acquired. […]

MtIOMT3 = assay: OMT assays with purified recombinant MtIOMT3 (relative activity; HPLC/MS of products); assay type: biochemical, Medicago truncatula; details: 50 μM S-adenosyl methionine, 100 μM acceptor substrate; most converted substrate = 100%
Text: as §1, §2, §3, §4

MtIOMT4 = assay: OMT assays with purified recombinant MtIOMT4 (relative activity; HPLC of products); assay type: biochemical, Medicago truncatula; details: for Relative activity, MtIOMT4: 50 μM S-adenosyl methionine, 100 μM acceptor substrate, most converted substrate = 100%
Text: as §1, §2
For determination of specific activities, reactions (100 μl) were performed in 0.1 M potassium phosphate, pH 7.4, 10% (w/v) sucrose, 14 mM β-mercaptoethanol with 0.2-μg protein, 50 μM S-adenosyl-L-methionine (0.025 μCi ^14C-SAM per reaction), and 100 μM substrate. Reactions were incubated at 30° C. for 15-25 min and stopped by addition of 4 μl of 1N HCl. Products were extracted into 500 μl of ethyl acetate and 400 μl was used for liquid scintillation counting. […]

MtIOMT6 = assay: OMT assays with purified recombinant MtIOMT6 (relative activity; HPLC/MS of products); assay type: biochemical, Medicago truncatula; details: 50 μM S-adenosyl methionine, 100 μM acceptor substrate; most converted substrate = 100%
Text: as §1, §2, §3, §4

MtIOMT7 = assay: OMT assays with purified recombinant MtIOMT7 (relative activity; HPLC/MS of products); assay type: biochemical, Medicago truncatula; details: for Relative activity, MtIOMT7: 50 μM S-adenosyl methionine, 100 μM acceptor substrate, most converted substrate = 100%
Text: as §1, §2, §3
An HP 1100 series II LC system (Hewlett-Packard, Palo Alto, Calif.) with a photodiode array detector was coupled to a Bruker Esquire ion-trap mass spectrometer (ITMS) equipped with an electrospray ionization source. A reverse phase, C18, 5 μm, 4.6×250 mm column (J. T. Baker, Phillipsburg, N.J.) was used for separations. The mobile phase consisted of 0.1% (v/v) acetic acid using linear gradients of 5-90% acetonitrile (v/v) in 70 min. The flow rate was 0.8 ml/min, and the temperature of the column was kept at 28° C. Both positive- and negative-ion mass spectra were acquired.

MsI7OMT = molecular target: T1, MsI7OMT (Medicago sativa, UniProt O24529); assay: OMT assays with purified recombinant MsI7OMT (relative activity); assay type: biochemical; details: 50 μM S-adenosyl methionine, 100 μM acceptor substrate; most converted substrate = 100%
T1 sequence (O24529 1-352): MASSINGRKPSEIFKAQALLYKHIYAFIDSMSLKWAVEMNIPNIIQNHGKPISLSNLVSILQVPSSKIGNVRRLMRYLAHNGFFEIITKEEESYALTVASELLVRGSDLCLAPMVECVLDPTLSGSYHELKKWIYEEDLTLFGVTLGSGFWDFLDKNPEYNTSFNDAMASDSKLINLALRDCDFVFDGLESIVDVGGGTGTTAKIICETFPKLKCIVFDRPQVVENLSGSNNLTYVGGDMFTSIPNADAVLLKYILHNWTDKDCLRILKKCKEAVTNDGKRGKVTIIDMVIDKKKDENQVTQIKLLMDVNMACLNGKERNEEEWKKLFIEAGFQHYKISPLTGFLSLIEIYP
Text: as §1, §2, §3

Structure (SMILES) | Relative activity, MtIOMT2 (MtIOMT2) | Relative activity, MtIOMT3 (MtIOMT3) | Relative activity, MtIOMT4 (MtIOMT4) [%] | Relative activity, MtIOMT6 (MtIOMT6) [%] | Relative activity, MtIOMT7 (MtIOMT7) | Relative activity, MsI7OMT (MsI7OMT) | Efficiency of methylation by MtIOMT2 (in words) (MtIOMT2) | Activity of MtIOMT4 (in words) (MtIOMT4) | Amount of substrate methylated after 2 h (MtIOMT7; MtIOMT7, 2 h)
O=c1c(O)c(-c2cc(O)c(O)c(O)c2)oc2cc(O)cc(O)c12 [Myricetin] | 0% | 0% | 0 | 0 | 0% | 0% | – | – | –
O=c1cc(-c2ccc(O)cc2)oc2cc(O)ccc12 [7,4′-dihydroxyflavone] | ≦1% | 0% | 0 | 0 | 0% | 0% | – | – | –
O=c1c(-c2ccc(O)cc2)coc2cc(O)c(O)cc12 [6,7,4′-trihydroxyisoflavone] | 35.3% | 100% | 0 | 0 | 0% | 51.8% | – | – | –
O=C1c2ccc(O)cc2OCC1c1ccc(O)cc1 (stereo not drawn) [Dihydrodaidzein] | 70.1% | 49.4% | 0 | 100 | 84.1% | 12.8% | – | – | –
COc1ccc(C2COc3cc(O)ccc3C2)c(O)c1 (stereo not drawn) [Vestitol] | ≦1% | 0% | 43.8 | 66.2 | 3.4% | 0% | low efficiency | low level, trace activity | –
COc1cc2c(=O)c(-c3ccc(O)cc3)coc2cc1O [Glycitein] | 38.9% | 51.6% | 0 | 0 | ≦1% | 100% | – | – | –
O=c1cc(-c2ccc(O)cc2)oc2cc(O)cc(O)c12 [Apigenin] | 0% | 0% | 0 | 0 | 0% | 0% | – | – | –
O=c1c(-c2ccc(O)cc2)coc2cc(O)ccc12 [Daidzein] | 100% | ≦1% | 0 | 0 | 0% | 21.6% | – | – | –
O=c1oc2cc(O)ccc2c2oc3cc(O)ccc3c12 [Coumestrol] | ≦1% | 0% | 100 | 0 | 1.5% | 0% | low efficiency | low level, trace activity | –
COc1ccc(-c2coc3cc(O)c(O)cc3c2=O)cc1 [6,7-dihydroxy,4′-methoxyisoflavone] | 0% | 0% | 0 | 0 | 0% | ≦1% | – | – | –
O=c1c(-c2ccc(O)c(O)c2)coc2cc(O)ccc12 [7,3′,4′-trihydroxyisoflavone] | 43.1% | 52.9% | 0 | 0 | ≦1% | 47.1% | – | – | –
O=C1C[C@@H](c2ccc(O)cc2)Oc2cc(O)cc(O)c21 [Naringenin] | ≦1% | 0% | 0 | 0 | 100% | 0% | low efficiency | – | Almost all
O=c1c(-c2ccc(O)cc2)coc2cc(O)cc(O)c12 [Genistein] | 61% | 73.7% | 0 | 0 | 0% | 15% | – | – | –
